Patent US6642216B2, “Isoprenoid pathway inhibitors for stimulating bone growth” (ZymoGenetics Corporation, priority 1996, dated 2003)

Legend:
BMP-2 promoter = experiment: ABA assay: BMP-2 promoter-luciferase reporter in 2T3-BMP-2-LUC osteoblast cells; format: cell-based, mouse
Description: These transformed cells are then evaluated for the production of the reporter gene product; compounds that activate the BMP promoter will drive production of the reporter protein, which can be readily assayed.
The cells were cultured using α-MEM, 10% FCS with 1% penicillin/streptomycin and 1% glutamine (“plating medium”), and were split 1:5 once per week. For the assay, the cells were resuspended in a plating medium containing 4% FCS, plated in microtiter plates at a concentration of 5×10^3 cells (in 50 μl)/well, and incubated for 24 hours at 37° C. in 5% CO2. To initiate the assay, 50 μl of the test compound or the control in DMSO was added at 2× concentration to each well, so that the final volume was 100 μl. The final serum concentration was 2% FCS, and the final DMSO concentration was 1%.
The treated cells were incubated for 24 hours at 37° C. and 5% CO2. The medium was then removed, and the cells were rinsed three times with PBS. After removal of excess PBS, 25 μl of 1× cell culture lysing reagent (Promega #E153A) was added to each well and incubated for at least ten minutes. Optionally, the plates/samples could be frozen at this point. To each well was added 50 μl of luciferase substrate (Promega #E152A; 10 ml Promega luciferase assay buffer per 7 mg Promega luciferase assay substrate). Luminescence was measured on an automated 96-well luminometer, and was expressed as either picograms of luciferase activity per well or as picograms of luciferase activity per microgram of protein.
Alternatively, the reactivity of a compound to be tested can be compared directly to a negative control containing no compound.

[1] = test system: serum response element (SRE)-luciferase reporter gene / CRE-luciferase reporter gene; experiment: negative control OBSRE (SRE-luciferase) and/or glucagon (CRE-luciferase) assays; format: cell-based, murine
Description: In the negative control OBSRE assay, a murine osteoblast cell line, such as CCC-4 expressing a serum response element (SRE)-luciferase reporter gene is used (see WO96/07733). In the negative control glucagon assay, a glucagon receptor-positive BHK cell expressing a CRE-luciferase reporter gene is used (see U.S. Pat. No. 5,698,672).

murine calvariae = conditions: reports by R. G. G. Russell and colleagues; cited from earlier work
[2] = Experiment 2, 0.097656 μM, 0.038085 μg/ml
[3] = Experiment 2, 0.195312 μM, 0.076171 μg/ml
[4] = Experiment 2, 0.390625 μM, 0.152343 μg/ml
[5] = Experiment 2, 0.78125 μM, 0.304687 μg/ml
[6] = Experiment 2, 1.5625 μM, 0.609375 μg/ml
[7] = Experiment 2, 3.125 μM, 1.21875 μg/ml
[8] = Experiment 2, 6.25 μM, 2.4375 μg/ml
[9] = Experiment 2, 12.5 μM, 4.875 μg/ml
[10] = Experiment 2, 25 μM, 9.75 μg/ml
[11] = Experiment 2, 50 μM, 19.5 μg/ml

CCC(C)(C)C(=O)O[C@H]1C[C@@H](C)C=C2C=C[C@H](C)[C@H](CC[C@@H](O)C[C@@H](O)CC(=O)O)[C@H]21 [Hydrolyzed simvastatin, hydrolyzed simvastatin]
dose-dependent stimulatory effect in the ABA assay (BMP-2 promoter): dose-dependent stimulatory effect | % 59-0008 Response (BMP-2 promoter; Experiment 1, 0.195312 μg/ml): −0.680% | Fold increase over negative control (BMP-2 promoter; Experiment 1, 0.195312 μg/ml): 0.9 fold | % 59-0008 Response (BMP-2 promoter; Experiment 1, 0.390625 μg/ml): 1.520% | Fold increase over negative control (BMP-2 promoter; Experiment 1, 0.390625 μg/ml): 1.1 fold | % 59-0008 Response (BMP-2 promoter; Experiment 1, 0.78125 μg/ml): 10.430% | Fold increase over negative control (BMP-2 promoter; Experiment 1, 0.78125 μg/ml): 1.6 fold | % 59-0008 Response (BMP-2 promoter; Experiment 1, 1.5625 μg/ml): 36.190% | Fold increase over negative control (BMP-2 promoter; Experiment 1, 1.5625 μg/ml): 3.4 fold | % 59-0008 Response (BMP-2 promoter; Experiment 1, 3.125 μg/ml): 75.860% | Fold increase over negative control (BMP-2 promoter; Experiment 1, 3.125 μg/ml): 6.0 fold | % 59-0008 Response (BMP-2 promoter; Experiment 1, 6.25 μg/ml): 150.260% | Fold increase over negative control (BMP-2 promoter; Experiment 1, 6.25 μg/ml): 10.9 fold | % 59-0008 Response (BMP-2 promoter; Experiment 1, 12.5 μg/ml): 156.230% | Fold increase over negative control (BMP-2 promoter; Experiment 1, 12.5 μg/ml): 11.3 fold | % 59-0008 Response (BMP-2 promoter; Experiment 1, 25 μg/ml): 200.230% | Fold increase over negative control (BMP-2 promoter; Experiment 1, 25 μg/ml): 14.3 fold | % 59-0008 Response (BMP-2 promoter; Experiment 1, 50 μg/ml): 44.520% | Fold increase over negative control (BMP-2 promoter; Experiment 1, 50 μg/ml): 3.9 fold | % 59-0008 Response (BMP-2 promoter; Experiment 1, 100 μg/ml): −15.230% | Fold increase over negative control (BMP-2 promoter; Experiment 1, 100 μg/ml): −0.0 fold | % 59-0008 Response (BMP-2 promoter; Experiment 1, 200 μg/ml): −15.140% | Fold increase over negative control (BMP-2 promoter; Experiment 1, 200 μg/ml): −0.0 fold | dose-dependent stimulatory effect in control assays [1]: not in control assays

CC[C@H](C)C(=O)O[C@H]1CCC=C2C=C[C@H](C)[C@H](CC[C@@H]3C[C@@H](O)CC(=O)O3)[C@H]21 [Mevastatin, mevastatin]
dose-dependent stimulatory effect in the ABA assay (BMP-2 promoter): dose-dependent stimulatory effect | % 59-0008 Response (BMP-2 promoter; Experiment 1, 0.195312 μg/ml): 25.840% | Fold increase over negative control (BMP-2 promoter; Experiment 1, 0.195312 μg/ml): 2.144 fold | % 59-0008 Response (BMP-2 promoter; Experiment 1, 0.390625 μg/ml): 15.650% | Fold increase over negative control (BMP-2 promoter; Experiment 1, 0.390625 μg/ml): 1.693 fold | % 59-0008 Response (BMP-2 promoter; Experiment 1, 0.78125 μg/ml): 34.520% | Fold increase over negative control (BMP-2 promoter; Experiment 1, 0.78125 μg/ml): 2.528 fold | % 59-0008 Response (BMP-2 promoter; Experiment 1, 1.5625 μg/ml): 47.630% | Fold increase over negative control (BMP-2 promoter; Experiment 1, 1.5625 μg/ml): 3.103 fold | % 59-0008 Response (BMP-2 promoter; Experiment 1, 3.125 μg/ml): 99.670% | Fold increase over negative control (BMP-2 promoter; Experiment 1, 3.125 μg/ml): 5.413 fold | % 59-0008 Response (BMP-2 promoter; Experiment 1, 6.25 μg/ml): 140.260% | Fold increase over negative control (BMP-2 promoter; Experiment 1, 6.25 μg/ml): 7.210 fold | % 59-0008 Response (BMP-2 promoter; Experiment 1, 12.5 μg/ml): 164.730% | Fold increase over negative control (BMP-2 promoter; Experiment 1, 12.5 μg/ml): 8.293 fold | % 59-0008 Response (BMP-2 promoter; Experiment 1, 25 μg/ml): 152.690% | Fold increase over negative control (BMP-2 promoter; Experiment 1, 25 μg/ml): 7.760 fold | % 59-0008 Response (BMP-2 promoter; Experiment 1, 50 μg/ml): 153.110% | Fold increase over negative control (BMP-2 promoter; Experiment 1, 50 μg/ml): 7.779 fold | % 59-0008 Response (BMP-2 promoter; Experiment 1, 100 μg/ml): 12.460% | Fold increase over negative control (BMP-2 promoter; Experiment 1, 100 μg/ml): 1.552 fold | % 59-0008 Response (BMP-2 promoter; Experiment 1, 200 μg/ml): −1.600% | Fold increase over negative control (BMP-2 promoter; Experiment 1, 200 μg/ml): 0.929 fold | % 59-0008 Response (BMP-2 promoter; [2]): 2.880% | Fold increase over negative control (BMP-2 promoter; [2]): 1.1 fold | % 59-0008 Response (BMP-2 promoter; [3]): −0.090% | Fold increase over negative control (BMP-2 promoter; [3]): 0.9 fold | % 59-0008 Response (BMP-2 promoter; [4]): 0.960% | Fold increase over negative control (BMP-2 promoter; [4]): 1.0 fold | % 59-0008 Response (BMP-2 promoter; [5]): 2.370% | Fold increase over negative control (BMP-2 promoter; [5]): 1.1 fold | % 59-0008 Response (BMP-2 promoter; [6]): 9.780% | Fold increase over negative control (BMP-2 promoter; [6]): 1.6 fold | % 59-0008 Response (BMP-2 promoter; [7]): 10.970% | Fold increase over negative control (BMP-2 promoter; [7]): 1.7 fold | % 59-0008 Response (BMP-2 promoter; [8]): 36.210% | Fold increase over negative control (BMP-2 promoter; [8]): 3.4 fold | % 59-0008 Response (BMP-2 promoter; [9]): 66.010% | Fold increase over negative control (BMP-2 promoter; [9]): 5.3 fold | % 59-0008 Response (BMP-2 promoter; [10]): 71.630% | Fold increase over negative control (BMP-2 promoter; [10]): 5.7 fold | % 59-0008 Response (BMP-2 promoter; [11]): 97.420% | Fold increase over negative control (BMP-2 promoter; [11]): 7.4 fold | % 59-0008 Response (BMP-2 promoter; Experiment 2, 100 μM, 39 μg/ml): 88.860% | Fold increase over negative control (BMP-2 promoter; Experiment 2, 100 μM, 39 μg/ml): 6.9 fold | inhibition of bone resorption in murine calvariae in vitro (murine calvariae): inhibits bone resorption | dose-dependent stimulatory effect in control assays [1]: not in control assays
